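The compound was tested at five concentrations on cells cultured in 96-well plates, with a 48-hour exposure period. Here, GI50 denotes the concentration required for 50% inhibition of growth. The concentration for full growth arrest is given as TGI.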
Tests used:
Assay in all cases: NCI anticancer screen, dose series, 48 h
[1] = system: SNB-75 CNS
[2] = system: MOLT-4 leukemia
[3] = system: NCI-H23 lung
[4] = system: RPMI-8226 leukemia
[5] = system: TK-10 renal
[6] = system: EKVX NSCLC
[7] = system: NCI-H226 lung
[8] = system: MDA-MB-435
[9] = system: OVCAR-8 ovarian
[10] = system: COLO 205 colon

`C=CC[PH+](c1ccccc1)c1ccccc1.C=CC[PH+](c1ccccc1)c1ccccc1.[Cl][Pt][Cl]` was tested, and the GI50 [1] was 11 µM, the TGI [1] was 25.1 µM and the GI50 [2] was 3.11 µM. The TGI [2] was 14 µM, the GI50 [3] was 9.14 µM and the TGI [3] was 23.9 µM. The GI50 [4] was 3.18 µM, the TGI [4] was 13.6 µM and the GI50 [5] was 13.4 µM. It also gave a TGI [5] of 32.7 µM, a GI50 [6] of 13 µM and a TGI [6] of 27.4 µM. It also gave a GI50 [7] of 16.1 µM, a TGI [7] of 33 µM and a GI50 [8] of 14.8 µM. It also gave a TGI [8] of 28.9 µM, a GI50 [9] of 5.25 µM and a TGI [9] of 31.5 µM. The GI50 [10] was 5.39 µM and the TGI [10] was 34.1 µM.
For `C=C(CC1(CC(=C)c2ccc(C(=O)O)cc2)C(=O)N(C)C(=O)N(C)C1=O)c1ccc(C(=O)O)cc1`, the GI50 [1] was 25.2 µM, the TGI [1] was over 100 µM and the GI50 [2] was 38.3 µM. The TGI [2] was over 100 µM, the GI50 [3] was over 100 µM and the TGI [3] was over 100 µM. The GI50 [4] was 21.8 µM, the TGI [4] was over 100 µM and the GI50 [5] was 16 µM. For the same compound, the TGI [5] was over 100 µM, the GI50 [6] was over 100 µM and the TGI [6] was over 100 µM. The GI50 [7] was over 100 µM, the TGI [7] was over 100 µM and the GI50 [8] was 51.7 µM. The TGI [8] was over 100 µM, the GI50 [9] was 62.8 µM and the TGI [9] was over 100 µM. The GI50 [10] was 29.1 µM and the TGI [10] was over 100 µM.
`CN1c2ccccc2C(=O)Nc2cnc(Cl)nc21` gave a TGI [1] of over 100 µM, a TGI [2] of over 100 µM and a TGI [3] of over 100 µM. It also gave a TGI [4] of over 100 µM, a TGI [5] of over 100 µM and a TGI [6] of over 100 µM. The TGI [7] was over 100 µM, the TGI [8] was over 100 µM and the TGI [9] was over 100 µM. It also gave a TGI [10] of over 100 µM.
Work on `COc1ccc(N=C2NN=C(c3c[nH]c4ccccc34)CS2)cc1OC` yielded a GI50 [1] of 3.34 µM, a TGI [1] of 20.6 µM and a GI50 [2] of 3.29 µM. The TGI [2] was over 100 µM, the GI50 [3] was 13.5 µM and the TGI [3] was over 93.2 µM. For the same compound, the GI50 [4] was 3.66 µM, the TGI [4] was over 29.6 µM and the GI50 [5] was 38 µM. The TGI [5] was over 100 µM, the GI50 [6] was 8.77 µM and the TGI [6] was over 100 µM. The GI50 [7] was 15.9 µM, the TGI [7] was over 100 µM and the GI50 [8] was 1.3 µM. It also gave a TGI [8] of 4 µM, a GI50 [9] of 22.7 µM and a TGI [9] of over 89.9 µM. It also gave a GI50 [10] of 6.55 µM and a TGI [10] of over 76.5 µM.
